# From article PMC9641905, “Synthesis, biological evaluation and molecular docking of new triphenylamine-linked pyridine, thiazole and pyrazole analogues as anticancer agents” (BMC Chemistry, 2022)
# Legend:
# A-549 cell line = assay: MTT cytotoxicity assay, A-549 lung cancer cell line; format: cell-based, human; details: lung cancer cells
# Method: (§1) The lung cancer A-549 and the breast cancer MDA-MB-231 cell lines were obtained from the viscera Tissue Culture Unit. The cells were spread in Dulbecco’s modified Eagle’s medium (DMEM) supplemented with 10% heat-inactivated fetal bovine serum, 1% L-glutamine, HEPES buffer, and 50 µg/mL gentamycin. All cells were maintained at 37 °C in a humidified atmosphere with 5% CO2 and were sub-cultured two times a week.
# (§2) The MTT assay was applied to determine the cytotoxicity of pyridine and thiazole derivatives. MTT or 3-(4,5-dimethylthiazol-2-yl)-2,5-diphenyltetrazolium bromide was purchased from Serva, Germany. The cell lines were introduced into 96-well plates at a cell concentration of 1 × 10^4 cells per well in 100 μL of complete medium (tests were done in duplicates). These plates were incubated for 24 h, 5% CO2, at 37 °C for settle down and adhesion. Control cells were incubated without the test sample and with or without DMSO. After incubation, different concentrations of samples were added after the period of incubation (48 h), media were inhaled, and the MTT solution was added to all wells for full 30 min. Briefly, the media was extracted from the 96 well plates and exchanged with 100 µl of fresh culture RPMI 1640 medium without phenol red then 10 µl of the 12 mM MTT stock solution (5 mg of MTT in 1 mL of PBS) to all wells inclusive the untreated controls. The 96 well plates were incubated at 37 °C and 5% CO2 for 4 h. An 85 µl aliquot of the media was taken away from the wells, added 50 µl of DMSO to all wells and mixed thoroughly, and incubated at 37 °C for 10 min. The absorbance of plates was measured after shaking on a microplate reader (TECAN, Inc.), using a test wavelength of 590 nm. Measure the optical density by the microplate reader to calculate the number of viable cells and the percentage of viability according to [(ODt/ODc)] × 100% where ODt (optical density of cells treated) with the tested sample and ODc (optical density of control cells).
# (§3) In the vitro cytotoxic activity of triphenylamine-based pyridine, thiazole, pyrazole and/or isoxazole derivatives was estimated against two cell lines as lung cancer (A-549) and mammary gland breast cancer cell line (MDA-MB-231) by using MTT assay according to reported method. Cisplatin is one of the common alkylation agents was selected to be the reference drug. From graphic plots of the dose response curve determine the 50% inhibitory concentration (IC50) (Fig. 2).
# MDA-MB-231 cell line = assay: MTT cytotoxicity assay, MDA-MB-231 breast cancer cell line; format: cell-based, human; details: breast cancer cells
# Method: as §1, §2, §3
# [1] = tested on: human lung fibroblast noncancerous cell line (MRC-5); assay: MTT cytotoxicity assay against normal cells (MRC-5); format: cell-based; details: normal human lung fibroblasts
# Method: as §2
# (§4) The MTT assay was applied to determine the cytotoxicity of pyridine and thiazole derivatives against normal cell line to explore the selectivity of the tested compounds against tumor cells. The cytotoxicity was tested against human lung fibroblast noncancerous cell line (MRC-5).
# [2] = as above; format: cell-based; details: MRC-5 cells (normal lung fibroblasts), normal human lung fibroblasts, read-out: CC50 MRC-5 cell line
# Method: as §2, §4
melting point [°C],Molecule,IC50 (A-549 cell line; 48 h) [nM],IC50 (MDA-MB-231 cell line; 48 h) [nM],CC50 [1] [nM],"IC50 (A-549 cell line; Homo sapiens, A549, 48 h) [nM]","IC50 (MDA-MB-231 cell line; Homo sapiens, MDA-MB-231, 48 h) [nM]",CC50 at 48 h [2] [nM]
–,"6-Amino-1-(p-anisyl)-4-(4-(diphenylamino)phenyl)-2-oxo-1,2-dihydropyridine-3,5-dicarbonitrile [4c]",154,193,864,–,–,–
–,"N#Cc1c(-c2ccc(N(c3ccccc3)c3ccccc3)cc2)c(C#N)c(=O)n(-c2ccccc2)c1N [4a, 6-Amino-4-(4-(diphenylamino)phenyl)-2-oxo-1-phenyl-1,2-dihydropyridine-3,5-dicarbonitrile]",–,–,–,46.9,55,137
–,"Cc1ccc(-n2c(N)c(C#N)c(-c3ccc(N(c4ccccc4)c4ccccc4)cc3)c(C#N)c2=O)cc1 [4b, 6-Amino-4-(4-(diphenylamino)phenyl)-2-oxo-1-(p-tolyl)-1,2-dihydropyridine-3,5-dicarbonitrile]",–,–,–,8.03,10.3,97.1
–,"CN(C)c1ccc(-n2c(N)c(C#N)c(-c3ccc(N(c4ccccc4)c4ccccc4)cc3)c(C#N)c2=O)cc1 [4d, 6-Amino-1-(4-(dimethylamino)phenyl)-4-(4-(diphenylamino)phenyl)-2-oxo-1,2-dihydropyridine-3,5-dicarbonitrile]",–,–,–,233,–,1100
–,"N#Cc1c(-c2ccc(N(c3ccccc3)c3ccccc3)cc2)c(C#N)c(=O)n(-c2ccc([N+](=O)[O-])cc2)c1N [4e, 6-Amino-4-(4-(diphenylamino)phenyl)-1-(4-nitrophenyl)-2-oxo-1,2-dihydropyridine-3,5-dicarbonitrile]",–,–,–,9.5,14.7,82.3
–,"CCN(CC)c1ccc(NC(=O)C(C#N)=c2sc(=O)c(=Cc3ccc(N(c4ccccc4)c4ccccc4)cc3)n2-c2ccccc2)cc1 [6a, 2-Cyano-N-(4-(diethylamino)phenyl)-2-(4-(4-(diphenylamino)benzylidene)-5-oxo-3-phenylthiazolidin-2-ylidene)acetamide]",–,–,–,141,172,985
–,"CN(C)c1ccc(NC(=O)C(C#N)=c2sc(=O)c(=Cc3ccc(N(c4ccccc4)c4ccccc4)cc3)n2-c2ccccc2)cc1 [6b, 2-Cyano-N-(4-(dimethylamino)phenyl)-2-(4-(4-(diphenylamino)benzylidene)-5-oxo-3-phenylthiazolidin-2-ylidene)acetamide]",–,–,–,79.2,123,768
–,"Cc1ccc(NC(=O)C(C#N)=c2sc(=O)c(=Cc3ccc(N(c4ccccc4)c4ccccc4)cc3)n2-c2ccccc2)cc1 [6c, 2-Cyano-2-(4-(4-(diphenylamino)benzylidene)-5-oxo-3-phenylthiazolidin-2-ylidene)-N-(p-tolyl)acetamide]",–,–,–,48.5,51,143
–,"COc1ccc(NC(=O)C(C#N)=c2sc(=O)c(=Cc3ccc(N(c4ccccc4)c4ccccc4)cc3)n2-c2ccccc2)cc1 [6d, 2-Cyano-2-(4-(4-(diphenylamino)benzylidene)-5-oxo-3-phenylthiazolidin-2-ylidene)-N-(4-methoxyphenyl)acetamide]",–,–,–,95.4,139,683
–,"N.N.[Cl][Pt][Cl] [Cisplatin, reference compound]",24.4,12,–,–,–,–
250 to 252,"CCOC(=O)C=c1sc(=Cc2ccc(N(c3ccccc3)c3ccccc3)cc2)c(=O)n1-c1ccccc1 [compound 8, ethyl-2-(5-(4-(diphenylamino)benzylidene)-4-oxo-3-phenylthiazolidin-2-ylidene)acetate]",–,–,–,219,136,1100
182 to 184,"CC1=NN(c2ccccc2)C(=O)C1=Cc1ccc(N(c2ccccc2)c2ccccc2)cc1 [compound 9, 4-(4-(Diphenylamino)benzylidene)-5-methyl-2-phenyl-2,4-dihydro-3H-pyrazol-3-one]",–,–,–,127,268,1300
218 to 220,"O=C1ON=C(c2ccccc2)C1=Cc1ccc(N(c2ccccc2)c2ccccc2)cc1 [compound 10, 4-(4-(Diphenylamino)benzylidene)-3-phenylisoxazol-5(4H)-one]",–,–,–,128,111,973
